Experiments:
[1] = Ultraviolet spectroscopy in methanol solutions; assay type: physicochemical; conditions: for Absorption Range: scan range 290–400 nm
Procedure: Spectra with a scan range of 290–400 nm were recorded in 50 or 25 μM methanol solutions, in 1 cm path length, 1.5 mL quartz cuvettes on a U-2800 double beam spectrophotometer (Hitachi, Tokyo, Japan) controlled by UV Solution version 2.2 software. The molar extinction coefficient at maximum absorption (εmax) of tested compounds was determined in methanol as the slope of the linear regression of absorbance vs. concentration of tested compound (from 10 to 50 μM or 2.5 to 30 μM).

[2] = In vitro photoprotection study of 2% (w/w) macrogol formulations on PMMA plates
Text: The composition of formulations and concentration of tested compounds were based on their limited solubility. N-monosubstituted compounds 2a–2e were insoluble at desirable concentrations in the typical solvents used in cosmetic formulations such as alcohols, triacetin, surfactants, and co-surfactants. To dissolve compounds 2a and 2b before incorporation to the formulation DMSO: Tween 20 (1:9 w/w) was used, for less soluble 2c–2e it was necessary to use DMSO alone as solvent. […] Thus the detailed composition of the formulations is as follows: F1–Tween 20 43.2%, PEG-400 25%, PEG-1500 25%, Triacetin 4.8%, tested compound 2%; F2–Tween 20 43.2%, PEG-400 25%, PEG-1500 25%, DMSO 4.8%, tested compound 2%; F3–PEG-400 25%, PEG-1500 25%, DMSO 48%, tested compound 2%. Considering the disadvantages of currently reported macrogol formulations and the low concentration achieved for the tested compounds (2%), we plan to work on cosmetic emulsions containing the most promising derivatives at higher concentrations as well as required excipients including preservatives, antioxidants, etc. This research will be carried out in the near future.
Tested compounds and commercial UV filters as reference standards were incorporated to a neutral macrogel formulation in the concentration of 2%. Prior to the incorporation, compounds 3a–3e and 4f–4h and reference UV-filters were dissolved in a triacetin:Tween 20 (1:9) solvent system. For compounds 2a–2e it was necessary to use DMSO. The final composition of the macrogol formulations is presented in the photoprotective activity section.
In vitro photoprotection study was performed according to EN ISO 24443:2012 [71] with slight modifications. Formulation with tested compound (32.5 mg) was applied on a polymethylmethacrylate plate (PMMA) with the application area 25 cm^2 and 5 µm roughness value to simulate the skin surface (Schonberg GmbH, Hamburg, Germany). As a reference a PMMA plate treated with approximately 15 µL of glycerin was used. Measurements were carried out by reflectance spectrophotometry with SPF-290AS Analyser (Solar Light Company, Glenside, PA, USA) equipped with integrating sphere controlled by WinSPF version X.X. software. For each sample two plates were prepared, absorbance measures were performed on 6 different positions of the plate from 290 to 400 nm with 1 nm steps. The results were expressed as an average of data from 12 scans.

[3] = Photostability in methanol solutions (solar light simulator); assay type: physicochemical; set-up: λmax pre-irradiation: unit not given beside the values; conditions: methanol solution; for % of initial AUC post-irradiation / λmax post-irradiation: 1h irradiation at 500 W/m2
Procedure: (§1) The photostability evaluation of compounds was performed both in methanol solutions and in macrogol formulations. Irradiation of samples according to previous studies was conducted for 1 h at 500 W/m^2 (cumulative dose of ultraviolet radiation 218 kJ/m^2) with solar light simulator (Suntest CPS+, Atlas, Linsengericht, Germany) equipped with an optical filter cutting off wavelengths shorter than 290 nm and IR-block filter to neutralize thermal effects. The UV absorption spectrum of the samples were analysed post-irradiation and compared with pre-irradiation results. UPLC-MS/MS analyses were also performed.
(§2) Methanol solutions were tested at concentration 25 or 50 µM in quartz cuvettes with the PTFE stopper to prevent evaporation or leaking of the solvent. Macrogol formulations (2% w/w) were tested on PMMA plates (1.3 mg/cm^2). After post-irradiation measure of UV absorption, exposed and unexposed plates were washed with 5 mL of methanol, then mixtures were filtered and analysed by UPLC-MS/MS. All analyses were performed in duplicates.

[4] = In vitro stability in mouse liver microsomes; assay type: in vitro ADME; conditions: mouse liver microsomes
Procedure: Mouse liver microsomes (MLMs) were used to investigate the phase I metabolism of selected compounds (2c, 2d, 3b, 4g, 5a) and the reference substance BP-2. Samples composed of test compound (20 µM), MLMs (0.8 mg/mL) and potassium phosphate buffer (100 mM, pH 7.4) were preincubated prior to addition of NADPH-regenerating system. NADPH-regenerating system contained NADP, glucose-6-phosphate, glucose-6-phosphate dehydrogenase and potassium phosphate buffer (100 mM, pH 7.4). Control incubations were performed in the absence of the NADPH-regenerating system and in case of esters (2c, 2d, 3b and 4g) without the mouse liver microsomes solution to determine spontaneous hydrolysis. Incubations were conducted at 37 °C for at least 15 min up to 60 min. The reactions were stopped by the addition of 250 μL ice-cold methanol containing internal standard PTX (20 μM). The mixture was then centrifuged. Supernatant analysis was performed using UPLC/MS (Waters Corporation). The assays were repeated two times. The in vitro half times (t1/2) for test compounds were determined from the slope of the linear regression of ln % parent compound remaining versus incubation time. The calculated t1/2 was incorporated into the following equation to obtain intrinsic clearance: (Clint) = (volume of incubation [µL]/ protein in the incubation [mg]) × 0.693 / t1/2 [74].

[5] = Ames MPF Penta 2 microplate mutagenicity assay, TA98; assay type: cell-based; conditions: Salmonella typhimurium, read-out: FIB (fold induction over baseline), positive control
Procedure: (§3) The assay is a liquid microplate modification of the traditional Salmonella test. During the procedure, bacteria are exposed to different concentrations of a test compound for 90 min in a medium containing sufficient histidine (S. typhimurium) or tryptophan (E. coli) to support cell divisions. Then, the cultures are diluted in pH indicator medium lacking histidine or tryptophan and aliquoted into 48 wells of a 384-well plate. Within 48 hours, cells that have undergone reversion to amino acid prototrophy will grow into colonies. Bacterial metabolism reduces pH of the medium, changing the color of that well from purple to yellow (https://www.xenometrix.ch).
(§4) The following strains were used in the study: S. typhimurium TA98, TA100, TA1535, TA1537 and E. coli wp2 uvrA[pKM101]. TA100, TA1535 and E. coli strains are used for the detection of base substitution mutations, whereas TA98 and TA1537 are utilized for the detection of frameshift mutations. S. typhimurium strains have GC base pairs, whereas E. coli strain has AT base pair at their primary reversion site and detect certain oxidizing mutagens, cross-linking agents and hydrazines.
(§5) The test procedure provided by Xenometrix (https://www.xenometrix.ch) and described earlier was followed. Briefly, the bacterial strains were grown overnight in exposure medium and exposed to test compounds 4g and 3b in 24-well plates for 90 min at 37 °C with agitation in the absence (–S9) or presence (+S9) of 4.5% phenobarbital/ β-naphthoflavone-induced rat liver S9. Compounds 4g and 3b were dissolved in DMSO and tested at final concentrations of 0.1, 0.2 and 0.5 mM. After the preincubation, the cultures were diluted in the indicator medium and the contents of each 24-well culture were distributed into 48 wells on a 384-well plate and incubated further for 48 h at 37 °C without agitation. After the exposure, the number of wells containing bacteria was scored by eye for yellow wells. Positive and negative controls were included in the assay, and all doses were done in triplicate.
(§6) Pure DMSO was used as the negative control.
(§7) The fold increase of revertants relative to the solvent control was determined by dividing the mean number of positive wells at each dose by the solvent control at baseline. The solvent control at baseline was defined as the mean number of positive wells in the solvent control plus one standard deviation (SD). When an increase of more than 2-fold relative to the baseline at more than one dose with a dose–response is observed the sample is classified as positive, whereas when no response >2 times the baseline and no dose–response is stated the sample is negative.

[6] = Ames MPF Penta 2 microplate mutagenicity assay, TA100; assay type: cell-based; conditions: Salmonella typhimurium; TA100, +S9, 1.25 µg/mL; read-out: FIB (fold induction over baseline), positive control
Procedure: as §3, §4, §5, §6, §7

[7] = Photostability in macrogol formulations on PMMA plates (solar light simulator); assay type: physicochemical
Procedure: After irradiation of thin layer of formulations applied on PMMA plates, their photoprotective parameters were determined and compared with the pre-irradiation results. The study gives an overview on functional photostability of the tested compounds. It is an important test, because the photostability of some compounds in low concentrated solutions may meaningfully differ from results obtained for higher concentrations used in sunscreen products. […] In the present study both UVB and UVA-absorbers were tested, so the changes in SPFin vitro, UVA PF and AUC after irradiation are taken into account as a measure of photostability.
as §1, §2

in vitro = conditions: Salmonella typhimurium
Procedure: as §3, §4, §5, §6, §7

[8] = Ames MPF Penta 2 microplate mutagenicity assay, TA1535; conditions: Salmonella typhimurium, FIB (fold induction over baseline), positive control, TA1535, –S9, 100 µg/mL
Procedure: as §3, §4, §5, §6, §7

[9] = 2% (w/w) macrogol formulation F1 (Triacetin 4.8%)
[10] = 2% (w/w) macrogol formulation F1 (Tween 20, PEG-400, PEG-1500, Triacetin 4.8%)
[11] = 2% (w/w) macrogol formulation F2 (DMSO 4.8%)
[12] = after 1 h irradiation at 500 W/m^2, formulation F2 (DMSO 4.8%)
[13] = after 1 h irradiation at 500 W/m^2, formulation F3 (DMSO 48%)
[14] = after 1 h irradiation at 500 W/m^2, formulation F1

Row | Compound | εmax [1] | λmax [1] | Absorption Range [1] | UVA PF [2, 9] | UVA/UVB Ratio [2, 9] | λc (critical wavelength) [2, 9] | SPFin vitro [2, 10] | λmax pre-irradiation [3] | % of initial AUC post-irradiation [3] | λmax post-irradiation [3] | other results
1 | COc1ccc(C(=O)CC(=O)c2ccc(C(C)(C)C)cc2)cc1 [Avobenzone, butyl methoxy-dibenzoylmethane, reference compound] | 36820 M⁻¹ cm⁻¹ | 358 nm | 290–393 nm | 7.56 ± 0.19 | 2.49 ± 0.03 | 381 nm | 2.23 ± 0.03 | – | – | – | –
2 | COc1ccc(/C=C2\NC(=O)NC2=O)cc1OC [Compound 1e, (Z)-5-(3,4-Dimethoxybenzylidene)imidazolidine-2,4-dione] | 28440 M⁻¹ cm⁻¹ | 341 nm | 290–384 nm | – | – | – | – | 341 | 95.38% | 346 | Probable Transformation [4]: O-dealkylation; half-life at 20 µM ([4]; mouse, pH 7.4, mouse liver microsomes 0.8 mg/mL, 20 µM compound, NADPH-regenerating system, 37 °C, read-out: t ½): 1.02 h; microsomal CLint at 20 µM ([4]; mouse, pH 7.4, mouse liver microsomes, calculated from t1/2): 14 µL/min/mg
3 | Nc1ccc2cc3ccccc3cc2c1 [Compound 2-AA, 2-aminoanthracene, reference compound] | – | – | – | – | – | – | – | – | – | – | fold induction at 90 min, 0.5 µg/mL ([5]; TA98, +S9, 0.5 µg/mL): 12.6; fold induction at 90 min, 1.25 µg/mL [6]: 3.1
4 | O=[N+]([O-])c1ccc2c(c1)Cc1ccccc1-2 [Compound 2-NF, 2-nitrofluorene, reference compound] | – | – | – | – | – | – | – | – | – | – | fold induction at 90 min, 2 µg/mL ([5]; S. typhimurium TA98 without S9 (–S9), TA98, –S9, 2 µg/mL): 25.3
5 | CCOC(=O)CN1C(=O)N/C(=C\c2ccc(OC)cc2)C1=O [Compound 2b, Ethyl (Z)-2-(4-(4-methoxybenzylidene)-2,5-dioxoimidazolidin-1-yl)acetate] | 31920 M⁻¹ cm⁻¹ | 334 nm | 290–372 nm | – | – | – | – | 334 | 95.67% | 341 | SPFin vitro [2, 11]: 3.20 ± 0.07; UVA PF [2, 11]: 4.29 ± 0.11; UVA/UVB Ratio [2, 11]: 1.20 ± 0.00; λc (critical wavelength) [2, 11]: 363 nm; improvement of the functional photostability ([7]; DMSO in formulation reduced from 48 to 4.8%): 30.2%; % of Initial AUC [7, 12]: 59.55%; % of Initial SPFin vitro [7, 12]: 57.19%; % of Initial UVA PF [7, 12]: 54.31%; % of Initial AUC [7, 13]: 35.28%; % of Initial SPFin vitro [7, 13]: 36.51%; % of Initial UVA PF [7, 13]: 24.13%; decrease of tested parameters (SPFin vitro, UVA PF, AUC) after irradiation ([7]; formulation with DMSO 48% (F3), extreme values): 75.9%; melting point: 178 to 179 °C
6 | Nc1c2ccccc2nc2ccccc12 [Compound 9-AAc, 9-aminoacridine, reference compound] | – | – | – | – | – | – | – | – | – | – | fold induction at 90 min, 15 µg/mL (in vitro): 48
7 | NNc1ccn([C@@H]2O[C@H](CO)[C@@H](O)[C@H]2O)c(=O)n1 [Compound N4-ACT, N4-aminocytidine, reference compound] | – | – | – | – | – | – | – | – | – | – | fold induction at 90 min, 100 µg/mL [8]: 40
8 | CCCCC(CC)COC(=O)C=Cc1ccc(OC)cc1 (stereo not shown) [EHMC, ethylhexyl methoxycinnamate, reference compound] | 22990 M⁻¹ cm⁻¹ | 309 nm | 290–339 nm | 1.34 ± 0.05 | 0.05 ± 0.01 | 321 nm | 4.96 ± 0.33 | 309 | 63.26% | 307 | decrease of AUC after irradiation [3]: 36.7%; % of Initial AUC [7, 14]: 78.45%; % of Initial SPFin vitro [7, 14]: 80.83%; % of Initial UVA PF [7, 14]: 88.76%
9 | CCCCC(CC)COC(=O)C(C#N)=C(c1ccccc1)c1ccccc1 (stereo not shown) [Octocrylene, octocrylene, reference compound] | 13650 M⁻¹ cm⁻¹ | 302 nm | 290–349 nm | 1.20 ± 0.03 | 0.12 ± 0.01 | 327 nm | 2.87 ± 0.16 | – | – | – | –
